Among the data in patent publication US8697699B2, “Imidazopyrazine SYK inhibitors” (Gilead Connecticut, Inc., priority 2008, dated 2014) are melting point values, retold here.

Structures can show the parent of a compound that is named as a salt.

For orientation: melting point means the temperature, or range, at which the solid turns liquid.

Consider `COc1ccc(Nc2nc(-c3cccc(C(=O)Nc4ccc(C(=O)O)cc4C)c3)cn3ccnc23)cc1OC` (as salt: hydrochloride) [Example 2, 4-(3-(8-(3,4-dimethoxyphenylamino)imidazo[1,2-a]pyrazin-6-yl)benzamido)-3-methylbenzoic acid hydrochloride salt], for which the melting point lay within 188 to 215 °C. `COc1ccc(Nc2nc(-c3cccc(C(=O)Nc4ccc(C(=O)OCc5ccccc5)cc4)c3)cn3ccnc23)cc1OC` [Example 3, benzyl 4-(3-(8-(3,4-dimethoxyphenylamino)imidazo[1,2-a]pyrazin-6-yl)benzamido)benzoate] gave a melting point of 154 to 160 °C.
